What was measured:
[1] = test system: rats; assay: Open field test (OFT); format: in vivo, rat; conditions: single methylone dose 5 or 15 mg/kg IP, 30 minutes before testing
Method: Data are mean +/− SEM. N=6 per group. * p<0.05; **p<0.01 vs. vehicle control group.
Method: Consecutive beam breaks and/or video-tracking of time spent in the center versus periphery of the open field are measured. Also measured are parameters such as distance traveled and ambulatory activity (horizontal and vertical) for the duration of the test session.
The open field test (OFT) capitalizes on a rodent's innate fear of open spaces to assess anxiety-like behavior. More time spent in the center of an open field reflects an anxiolytic (anti-anxiety) effect.

[2] = test system: Sprague Dawley rats; assay: Forced Swim Test (FST); format: in vivo, rat; conditions: for reduction in immobility compared to saline vehicle: single dose 30 min prior to testing (Example 6)
Text: The Forced Swim Test (FST) is a classic, and the most used preclinical behavioral assay to screen compounds with antidepressant-like activity and has high predictive and face validity (Porsolt et al. (1977) Nature 266:730; Borsini and Meli (1988) Psychopharmacology 94:147). The premise of the FST is that when rats are placed into a cylinder filled with water, they will initially try to escape, but over time will become immobile. This increased immobility reflects behavioral despair, modeling a depressive-like state.
Animals: Male Sprague Dawley rats (Charles River Laboratories) weighing 180-200 g on arrival, were used for this study which took place at Melior Discovery (Exton, PA). Rats acclimated to their home cages for at least one week before testing, were maintained in a controlled environment on a 12 h light/dark cycle, with no more than 2 rats per cage. Animals received ad libitum access to food and water and were assigned randomly to treatment groups. Animal use and procedures were in accordance with established protocols approved by the IACUC committee, Melior Standard Operation Procedures (SOP), and Transcend Therapeutics.
Forced Swim Test (FST): In the FST trial, rats were be placed in a circular plexiglass container filled with water, with no means of escape. Water temperature was maintained at 22-25° C. and changed for every animal. After an acclimation period, rats were timed for inactivity (failure to struggle), activity, swim time and climbing time. Day 1 consisted of a 15 min acclimation trial, and Day 2 (24 h later) consisted of the 5 min test. A time sampling procedure was employed where animals were observed every 5 sec and scored for immobility, swimming, or climbing. Fluoxetine (10 mg/kg, IP, Sigma Aldrich) or 0.9% sterile saline vehicle (vehicle 3× group) were administered 23.5, 5, and 1 h before testing in the FST. […] The experimenter was blinded to treatment.
Statistical Analysis: Data for each parameter of the test (immobility, swimming, or climbing) is expressed as the mean±SEM. Differences between groups were determined by one-way ANOVA and post-hoc Tukey's test with a p-value of less than 0.05 indicating statistically significant differences.
Forced Swim Test: In the FST trial, rats were be placed in a circular plexiglass container filled with water, with no means of escape. Water temperature was maintained at 22-25° C. and changed for every animal. After an acclimation period, rats were timed for inactivity (failure to struggle), activity, swim time and climbing time. Day 1 consisted of a 15 min acclimation trial, and Day 2 (24 h later) consisted of the 5 min test. A time sampling procedure was employed where animals were observed every 5 sec and scored for immobility, swimming, or climbing. Fluoxetine (10 mg/kg, IP, Sigma Aldrich) or 0.9% sterile saline vehicle (vehicle 3× group) were administered 23.5, 5, and 1 h before testing in the FST. 2C-B (2.5, 10, or 20 mg/kg, IP, Cayman Chemical) or 0.9% saline vehicle (vehicle 1× group) were administered 30 min prior to FST testing. The experimenter was blinded to treatment.
Drug Treatment: Fluoxetine (10 mg/kg, IP, Sigma Aldrich) or 0.9% sterile saline vehicle were administered 23.5, 5, and 1 h before testing in the FST. […] Control animals received fluoxetine alone, methylone alone, or saline vehicle.
Forced Swim Test: In the FST trial, rats were be placed in a circular plexiglass container filled with water, with no means of escape. Water temperature was maintained at 22-25° C. and changed for every animal. After an acclimation period, rats were timed for inactivity (failure to struggle), activity, swim time and climbing time. The experimenter and scorer were blind to treatment group. Day 1 consisted of a 15 min acclimation trial, and Day 2 (24 h later) consisted of the 5 min test. A time sampling procedure was employed where animals were observed every 5 sec and scored for immobility, swimming, or climbing. […]

[3] = biological target: serotonin (5HT) transporter (Homo sapiens, UniProt P31645); assay: Radioligand binding, [3H] citalopram
serotonin (5HT) transporter, sequence (P31645 whole entry): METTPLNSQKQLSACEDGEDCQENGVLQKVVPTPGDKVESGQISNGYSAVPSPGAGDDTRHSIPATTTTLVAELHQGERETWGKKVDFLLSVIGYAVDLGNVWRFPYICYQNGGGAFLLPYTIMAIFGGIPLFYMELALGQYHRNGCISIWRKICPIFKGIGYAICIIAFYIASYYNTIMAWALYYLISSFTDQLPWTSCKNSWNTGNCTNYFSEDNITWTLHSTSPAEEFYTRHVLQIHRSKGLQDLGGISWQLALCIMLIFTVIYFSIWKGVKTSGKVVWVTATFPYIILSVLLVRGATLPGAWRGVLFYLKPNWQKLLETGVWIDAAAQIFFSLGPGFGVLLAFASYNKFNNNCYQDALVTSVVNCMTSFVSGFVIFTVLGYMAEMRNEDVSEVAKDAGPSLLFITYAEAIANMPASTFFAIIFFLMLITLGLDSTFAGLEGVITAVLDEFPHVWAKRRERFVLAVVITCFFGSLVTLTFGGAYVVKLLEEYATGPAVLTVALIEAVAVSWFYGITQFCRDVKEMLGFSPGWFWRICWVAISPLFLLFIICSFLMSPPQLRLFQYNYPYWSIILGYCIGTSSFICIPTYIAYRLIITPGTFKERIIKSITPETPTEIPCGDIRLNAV

CNC(C)C(=O)c1ccc2c(c1)OCO2 (stereo not shown) [methylone, 3,4-methylenedioxy-N-methylcathinone]
time spent in the center of the open field compared to vehicle [1]: significantly increases
climbing behavior ([2]; Example 8): significantly increased climbing behavior
reduced immobility compared to vehicle ([2]; Methylone alone, 5 mg/kg IP (Example 8)): 71%
reduced immobility compared to vehicle ([2]; combined treatment: fluoxetine x3 plus Methylone 15 mg/kg IP (Example 8)): 95%
reduction in immobility compared to saline vehicle ([2]; methylone 5 mg/kg IP): 54%
reduction in immobility compared to saline vehicle ([2]; methylone 15 mg/kg IP): 99%
reduction in immobility compared to saline vehicle ([2]; methylone 30 mg/kg IP): 96%
climbing ([2]; methylone 5, 15, 30 mg/kg IP, Example 6): only increased at the lowest dose
swimming ([2]; methylone mid and high doses (15, 30 mg/kg IP), Example 6): significantly increased swimming
reduced immobility vs. vehicle ([2]; single dose of Methylone (5 mg/kg IP) after three prior doses of fluoxetine 10 mg/kg IP (Example 8)): 62%
immobility time ([2]; single doses of 10 and 15 mg/kg methylone IP (Example 11)): reducing immobility time significantly
immobility ([2]; two or three 5 mg/kg doses IP (Example 11)): significantly reduce immobility
binding at the 5HT transporter [3]: confirmed methylone binding
